Measurements: US7560435B2, “Therapeutic use of riboside of 5-aminoimidazole-4-carboxamide (acadesine)” (Advanced In Vitro Cell Technologies, S. A., priority 2002, dated 2009)

Key:
Jurkat (T cell line) = test: Effects of acadesine in cell lines: Jurkat; type: cell-based
Source text: (§1) Another important advantage of the invention is the selectivity and the concentration of acadesine necessary to induce apoptosis. […] This means that the possible side effects coming from damaging other cellular types are minor when using acadesine as a therapeutical agent.

B-CLL cells = test: cells; type: cell-based, human
Source text: Forty-six patients with B-CLL, seven patients with SMZL, two patients with lymphoproliferative disorder without a specific diagnosis, and four healthy donors were studied. All patients were diagnosed according to standard clinical and laboratory criteria. Written informed consent was obtained from all patients. Mononuclear cells from peripheral blood samples were isolated by centrifugation on a Ficoll/Hypaque (Seromed, Berlin, Germany) gradient and cryopreserved in liquid nitrogen in the presence of 10% dimethyl sulfoxide (DMSO).
Lymphocytes were cultured immediately after thawing at a concentration of 2 to 5×10^6 cells/ml in RPMI 1640 culture medium (Biological Industries, Beit Haemek, Israel) supplemented with 10% heat-inactivated fetal calf serum (Gibco-BRL, Paisley, GB), 1% glutamine, and 1% penicillin-streptomycin at 37° C. in a humidified atmosphere containing 5% carbon dioxide.
Apoptosis was measured by annexin V binding. Exposure of phosphatidylserine was quantified by surface annexin V staining as previously described (cf. B. Bellosillo et al., Blood 1998, vol. 92, pp. 1406-1414). To analyze apoptosis in T cells from the samples, 500,000 cells were incubated for 24 h with the indicated factors. Cells were then washed in phosphate-buffered saline (PBS) solution, and incubated in 50 μl of annexin binding buffer with APC-conjugated anti-CD3 and PE-conjugated anti-CD19 for 10 minutes in the dark. Cells were then diluted with annexin binding buffer to a volume of 250 μl and incubated with 0.5 μl of annexin V-FITC for 15 minutes in the dark. 250 μl of annexin binding buffer and 5 μl of PI were added just before flow cytometric analysis. Data were analyzed using Cell Quest software.
The effect of several doses of acadesine, ranging from 50 μM to 1 mM, on the viability of B-CLL cells, was studied. […] Cells from 5 patients were incubated for 24 h with various doses of acadesine as indicated.
Cells from 46 patients were incubated for 24 h with (+) or without (−) 0.5 mM acadesine. Viability (V) was measured by analysis of phosphatidylserine exposure and PI uptake, and it is expressed as the percentage of non apoptotic cells. All the patients were sensitive to acadesine and the viability decreased from 67±11% to 26±14% (n=46).

[1] = tested on: Hela (cervix cancer line); test: Effects of acadesine in cell lines: Hela; type: cell-based
Source text: as §1

HUH7 (liver cancer line) = test: Effects of acadesine in cell lines: HUH7; type: cell-based
Source text: as §1

293 = test: Effects of acadesine in cell lines: 293; type: cell-based
Source text: as §1

[2] = tested on: B cells from healthy donors; test: Apoptosis/viability by flow cytometry, B cells from healthy donors; type: cell-based, human; conditions: 0.5 mM, 24 h, 4 healthy donors
Source text: (§2) Forty-six patients with B-CLL, seven patients with SMZL, two patients with lymphoproliferative disorder without a specific diagnosis, and four healthy donors were studied. All patients were diagnosed according to standard clinical and laboratory criteria. Written informed consent was obtained from all patients. Mononuclear cells from peripheral blood samples were isolated by centrifugation on a Ficoll/Hypaque (Seromed, Berlin, Germany) gradient and cryopreserved in liquid nitrogen in the presence of 10% dimethyl sulfoxide (DMSO). Lymphocytes were cultured immediately after thawing at a concentration of 2 to 5×10^6 cells/ml in RPMI 1640 culture medium (Biological Industries, Beit Haemek, Israel) supplemented with 10% heat-inactivated fetal calf serum (Gibco-BRL, Paisley, GB), 1% glutamine, and 1% penicillin-streptomycin at 37° C. in a humidified atmosphere containing 5% carbon dioxide. Apoptosis was measured by annexin V binding. Exposure of phosphatidylserine was quantified by surface annexin V staining as previously described (cf. B. Bellosillo et al., Blood 1998, vol. 92, pp. 1406-1414). To analyze apoptosis in T cells from the samples, 500,000 cells were incubated for 24 h with the indicated factors. […] Data were analyzed using Cell Quest software. […] Viability is expressed as the mean value ± standard deviation.

[3] = tested on: B cells from patients with SMZL; test: Apoptosis/viability by flow cytometry, B cells from SMZL patients; type: cell-based, human; conditions: 0.5 mM and 1.0 mM, 24 h, seven SMZL patients
Source text: as §2, with “1406-1414).” for “1406-1414). To analyze apoptosis in T cells from the samples, 500,000 cells were incubated for 24 h with the indicated factors.”, “Viability (V) was measured by analysis of phosphatidylserine exposure and PI uptake, and it” for “Viability”, “percentage of non apoptotic cells. […]” for “mean value ± standard deviation.”

[4] = tested on: B cells from patients with lymphoproliferative disorder without a specific diagnosis; test: Apoptosis/viability by flow cytometry, B cells, lymphoproliferative disorder without a specific diagnosis; type: cell-based, human; conditions: 0.5 mM and 1.0 mM, 24 h, two patients
Source text: as §2, with “1406-1414).” for “1406-1414). To analyze apoptosis in T cells from the samples, 500,000 cells were incubated for 24 h with the indicated factors.”, “Viability (V) was measured by analysis of phosphatidylserine exposure and PI uptake, and it” for “Viability”, “percentage of non apoptotic cells. […]” for “mean value ± standard deviation.”

[5] = healthy individuals, given intravenously; cited from earlier work
[6] = tested on: CD3+/CD19- T cells from B-CLL patients; test: Apoptosis/viability by flow cytometry, T cells from B-CLL samples; type: cell-based, human; conditions: 24 h
Source text: Forty-six patients with B-CLL, seven patients with SMZL, two patients with lymphoproliferative disorder without a specific diagnosis, and four healthy donors were studied. All patients were diagnosed according to standard clinical and laboratory criteria. Written informed consent was obtained from all patients. Mononuclear cells from peripheral blood samples were isolated by centrifugation on a Ficoll/Hypaque (Seromed, Berlin, Germany) gradient and cryopreserved in liquid nitrogen in the presence of 10% dimethyl sulfoxide (DMSO). […] Apoptosis was measured by annexin V binding. Exposure of phosphatidylserine was quantified by surface annexin V staining as previously described (cf. B. Bellosillo et al., Blood 1998, vol. 92, pp. 1406-1414). […] Data were analyzed using Cell Quest software. To analyze whether the induction of apoptosis in B-CLL patients was selective to B cells, we counted the apoptotic T cells (CD3 positive cells) in four B-CLL blood samples treated for 24 h with several doses of acadesine. […] Viability (V) was measured as non apoptotic CD3+/CD19− T cells (empty symbols) or CD3−/CD19+B cells (full symbols), and it is expressed as the percentage of the viability of non treated cells. […] Viability is expressed as the mean value ± standard deviation.

JVM-2 = test: Effects of acadesine in cell lines: JVM-2; type: cell-based
Source text: as §1

[7] = tested on: MCF-7 (breast cancer line); test: Effects of acadesine in cell lines: MCF-7; type: cell-based
Source text: as §1

Q: What does the source list for NC(=O)c1ncn([C@@H]2O[C@H](CO)[C@@H](O)[C@H]2O)c1N [acadesine, 5-amino-1-β-D-ribofuranosyl-1H-imidazole-4-carboxamide]?
A: Sensitivity to acadesine relative to B-CLL cells (Jurkat (T cell line)): less sensitive to acadesine than B-CLL cells; Viability of B cells (B-CLL cells; 0.5 mM, 24 h, 18 B-CLL patients): markedly reduced; Induction of apoptosis (B-CLL cells; 24 h incubation, doses 50 μM to 1 mM, cells from 5 patients): induced apoptosis in a dose-dependent manner; viability at 500 µM (B-CLL cells; Homo sapiens, B-CLL, 24 h, read-out: Viability (percentage of non apoptotic cells)): 26 ± 14%; EC50 (B-CLL cells; Homo sapiens, B-CLL, 24 h incubation, 50 μM to 1 mM, cells from 5 patients (n=5), read-out: EC50 (viability of B-CLL cells)): 380 ± 60 µM; Sensitivity to acadesine relative to B-CLL cells [1]: less sensitive to acadesine than B-CLL cells; Sensitivity to acadesine relative to B-CLL cells (HUH7 (liver cancer line)): less sensitive to acadesine than B-CLL cells; Sensitivity to acadesine relative to B-CLL cells 293: less sensitive to acadesine than B-CLL cells; Viability of B cells [2]: markedly reduced; Viability of B cells [3]: markedly reduced; Viability of B cells [4]: markedly reduced; Concentrations in plasma [5]: 200 µM; Tolerability [5]: well tolerated; Acadesine-induced apoptosis in T cells ([6]; doses up to 1 mM, four B-CLL blood samples): resistant to acadesine-induced apoptosis; Viability of T cells ([6]; higher concentrations 2-4 mM): only slightly affected the viability; Sensitivity to acadesine relative to B-CLL cells (JVM-2): less sensitive to acadesine than B-CLL cells; Sensitivity to acadesine relative to B-CLL cells [7]: less sensitive to acadesine than B-CLL cells
